Results reported in ChEMBL document CHEMBL1201862, “PubChem BioAssay data set” (2004).
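Method: 48-hour compound exposure of cells in 96-well plates, five concentrations, linear interpolation of endpoints. GI50: concentration for 50% inhibition of growth.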 Active and inactive are the calls of the source. No stated cut-off is given here; in the data, active = GI50 up to about 1.1 µM and inactive = higher.

Experiments:
Experiment in all cases: inhibition of tumour cell growth, NCI panel, 48 h
SF-268 = tested on: SF-268
NCI-H460 = tested on: NCI-H460
DU-145 = tested on: DU-145
HOP-92 = tested on: HOP-92
CCRF-CEM = tested on: CCRF-CEM
SW-620 = tested on: SW-620
U-251 = tested on: U-251
Malme-3M = tested on: Malme-3M
UO-31 = tested on: UO-31
MDA-MB-231 = tested on: MDA-MB-231
NCI-H522 = tested on: NCI-H522
MOLT-4 = tested on: MOLT-4
SR = tested on: SR
MCF7 = tested on: MCF7
HL-60 = tested on: HL-60
SNB-75 = tested on: SNB-75
SN12C = tested on: SN12C
SF-295 = tested on: SF-295
SF-539 = tested on: SF-539

Row | Compound | GI50 (SF-268) | GI50 (NCI-H460) | GI50 (DU-145) | GI50 (HOP-92) | GI50 (CCRF-CEM) | GI50 (SW-620) | GI50 (U-251) | GI50 (Malme-3M) | GI50 (UO-31) | GI50 (MDA-MB-231) | GI50 (NCI-H522) | GI50 (MOLT-4) | GI50 (SR) | GI50 (MCF7) | GI50 (HL-60) | GI50 (SNB-75) | GI50 (SN12C) | GI50 (SF-295) | GI50 (SF-539)
1 | CN(CCNC(=O)c1c[nH]c2c1ccc1ccccc12)CCNC(=O)c1c[nH]c2c1ccc1ccccc12 | 3.1 µM (inactive) | 1.96 µM (inactive) | 1.99 µM (inactive) | 1.75 µM (inactive) | 1.73 µM (inactive) | 1.91 µM (inactive) | 2 µM (inactive) | 8.55 µM (inactive) | 1.38 µM (inactive) | 1.59 µM (inactive) | 1.89 µM (inactive) | 2.01 µM (inactive) | 2.08 µM (inactive) | 1.43 µM (inactive) | 1.95 µM (inactive) | 1.52 µM (inactive) | 3.39 µM (inactive) | 2.22 µM (inactive) | 1.15 µM (inactive)
2 | O=c1c2cc(I)ccc2nc(Sc2ccc([N+](=O)[O-])cc2[N+](=O)[O-])n1Cc1ccccc1 | 1.6 µM (inactive) | 4.24 µM (inactive) | 2.96 µM (inactive) | 2.33 µM (inactive) | 0.159 µM (active) | 2.47 µM (inactive) | 3.81 µM (inactive) | 5.51 µM (inactive) | 2.26 µM (inactive) | 5.22 µM (inactive) | 1.04 µM (active) | 1.39 µM (inactive) | 0.394 µM (active) | 2.02 µM (inactive) | 1.83 µM (inactive) | 3.91 µM (inactive) | 1.46 µM (inactive) | 5.92 µM (inactive) | 2.25 µM (inactive)
3 | COC(=O)C1(Cc2ccc(C)cc2)Cc2c(C)cccc2C1=O (stereo not given) | 21.8 µM (inactive) | 17.6 µM (inactive) | 15.3 µM (inactive) | 16.6 µM (inactive) | 82 µM (inactive) | 10.9 µM (inactive) | 17.1 µM (inactive) | 13 µM (inactive) | 24.7 µM (inactive) | 31.1 µM (inactive) | 11.2 µM (inactive) | 20 µM (inactive) | 7.24 µM (inactive) | 11.2 µM (inactive) | 5.6 µM (inactive) | 26.4 µM (inactive) | 18.3 µM (inactive) | 15.4 µM (inactive) | 16.4 µM (inactive)
4 | C[C@H]1CC(=O)[C@@]2(O)C#C/C=C\C#C[C@@H]3Nc4c(cc(O)c5c4C(=O)c4ccccc4C5=O)[C@]24O[C@]314 | 0.00313 µM (active) | < 0.001 µM (active) | 0.00189 µM (active) | 0.0157 µM (active) | 0.00106 µM (active) | 0.0153 µM (active) | 0.00701 µM (active) | 0.01 µM (active) | < 0.001 µM (active) | 0.0873 µM (active) | 0.0504 µM (active) | < 0.001 µM (active) | 0.00256 µM (active) | < 0.001 µM (active) | < 0.001 µM (active) | 0.0316 µM (active) | 0.00296 µM (active) | 0.0161 µM (active) | 0.00316 µM (active)
5 | C=CC1(C)CCC2C(=CCC3C2(C)CC(O)C(O)C3(C)COC2OC(CO)C(O)C(O)C2O)C1 (stereo not given) | > 100 µM (inactive) | 87.9 µM (inactive) | > 100 µM (inactive) | > 100 µM (inactive) | 46.1 µM (inactive) | > 100 µM (inactive) | > 100 µM (inactive) | > 100 µM (inactive) | > 100 µM (inactive) | > 100 µM (inactive) | > 100 µM (inactive) | 68.1 µM (inactive) | 41.4 µM (inactive) | > 100 µM (inactive) | 57.9 µM (inactive) | > 100 µM (inactive) | > 100 µM (inactive) | > 100 µM (inactive) | > 100 µM (inactive)
